Laboratory results: article PMC5095062, “The novel choline kinase inhibitor ICL-CCIC-0019 reprograms cellular metabolism and inhibits cancer cell growth” (Oncotarget, 2016)

Legend:
Experiment in all cases: Kinase selectivity screen
Format in all cases: biochemical
PAK2 = PAK2 (Homo sapiens, UniProt Q13177); details: PAK2, 10 μM
How it was run: (§1)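 ICL-CCIC-0019 was screened against a panel of 131 human kinases to assess kinase specificity. Activity was expressed as percent inhibition of each kinase.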

EIF2AK3 = EIF2AK3 (Homo sapiens, UniProt Q9NZJ5); details: EIF2AK3, 10 μM
How it was run: as §1

BTK = BTK (Homo sapiens, UniProt Q06187)
OSR1 = OSR1 (Homo sapiens, UniProt O95747); details: OSR1, 10 μM
Chain of OSR1 (O95747 whole entry): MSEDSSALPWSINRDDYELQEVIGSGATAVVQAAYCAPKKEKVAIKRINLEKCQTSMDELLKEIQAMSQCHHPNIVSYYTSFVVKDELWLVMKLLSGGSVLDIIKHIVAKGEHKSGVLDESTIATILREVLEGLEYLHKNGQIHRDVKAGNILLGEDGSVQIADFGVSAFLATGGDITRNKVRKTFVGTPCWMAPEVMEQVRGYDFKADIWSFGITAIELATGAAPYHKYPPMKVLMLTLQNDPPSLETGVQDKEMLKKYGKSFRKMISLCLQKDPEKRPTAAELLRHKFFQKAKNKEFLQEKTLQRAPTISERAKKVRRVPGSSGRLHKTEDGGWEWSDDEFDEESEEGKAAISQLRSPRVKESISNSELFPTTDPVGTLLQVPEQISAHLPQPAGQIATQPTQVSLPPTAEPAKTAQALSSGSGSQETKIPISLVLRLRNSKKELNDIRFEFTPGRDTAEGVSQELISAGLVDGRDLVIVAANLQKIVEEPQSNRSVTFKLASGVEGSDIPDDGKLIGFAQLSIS
How it was run: as §1

CK2 = CK2 (Homo sapiens, UniProt P68400); details: CK2, 10 μM
MAPKAP-K3 = MAPKAP-K3 (Homo sapiens, UniProt Q16644); details: MAPKAP-K3, 10 μM
Chain of MAPKAP-K3 (Q16644 whole entry): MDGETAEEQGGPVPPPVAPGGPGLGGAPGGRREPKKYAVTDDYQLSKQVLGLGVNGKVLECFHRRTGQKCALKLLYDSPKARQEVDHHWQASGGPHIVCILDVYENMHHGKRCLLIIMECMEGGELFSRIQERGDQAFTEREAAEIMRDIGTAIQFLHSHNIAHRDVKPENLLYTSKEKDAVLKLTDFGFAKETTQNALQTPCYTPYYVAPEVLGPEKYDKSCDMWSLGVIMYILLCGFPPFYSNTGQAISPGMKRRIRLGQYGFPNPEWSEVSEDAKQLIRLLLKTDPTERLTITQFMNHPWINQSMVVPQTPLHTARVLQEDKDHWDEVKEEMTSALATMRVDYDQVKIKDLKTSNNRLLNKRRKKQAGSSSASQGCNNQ
How it was run: as §1

ZAP70 = ZAP70 (Homo sapiens, UniProt P43403); details: ZAP70, 10 μM
How it was run: as §1

JAK2 = JAK2 (Homo sapiens, UniProt O60674); details: JAK2, 10 μM
Src = Src (Homo sapiens, UniProt P12931)
How it was run: as §1

JNK3 = JNK3 (Homo sapiens, UniProt P53779); details: JNK3, 10 μM
TAK1-TAB1 = TAK1-TAB1 (Homo sapiens, UniProt O43318); details: TAK1-TAB1, 10 μM
How it was run: as §1

CDK9-Cyclin T1 = CDK9-Cyclin T1 (Homo sapiens, UniProt P50750); details: CDK9-Cyclin T1, 10 μM
Chain of CDK9-Cyclin T1 (P50750 whole entry): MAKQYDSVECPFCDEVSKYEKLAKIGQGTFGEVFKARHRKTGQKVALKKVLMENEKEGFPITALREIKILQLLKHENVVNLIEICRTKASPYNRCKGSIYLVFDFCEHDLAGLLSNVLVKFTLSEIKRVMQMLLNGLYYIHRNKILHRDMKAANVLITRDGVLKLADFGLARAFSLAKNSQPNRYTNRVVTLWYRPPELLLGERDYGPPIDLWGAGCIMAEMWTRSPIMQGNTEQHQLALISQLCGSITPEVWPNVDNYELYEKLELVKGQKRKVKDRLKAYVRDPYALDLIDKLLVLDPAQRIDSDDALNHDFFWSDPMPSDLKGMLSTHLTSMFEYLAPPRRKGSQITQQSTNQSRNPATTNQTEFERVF
Chain of CDK9-Cyclin T1 (O60563 whole entry partner): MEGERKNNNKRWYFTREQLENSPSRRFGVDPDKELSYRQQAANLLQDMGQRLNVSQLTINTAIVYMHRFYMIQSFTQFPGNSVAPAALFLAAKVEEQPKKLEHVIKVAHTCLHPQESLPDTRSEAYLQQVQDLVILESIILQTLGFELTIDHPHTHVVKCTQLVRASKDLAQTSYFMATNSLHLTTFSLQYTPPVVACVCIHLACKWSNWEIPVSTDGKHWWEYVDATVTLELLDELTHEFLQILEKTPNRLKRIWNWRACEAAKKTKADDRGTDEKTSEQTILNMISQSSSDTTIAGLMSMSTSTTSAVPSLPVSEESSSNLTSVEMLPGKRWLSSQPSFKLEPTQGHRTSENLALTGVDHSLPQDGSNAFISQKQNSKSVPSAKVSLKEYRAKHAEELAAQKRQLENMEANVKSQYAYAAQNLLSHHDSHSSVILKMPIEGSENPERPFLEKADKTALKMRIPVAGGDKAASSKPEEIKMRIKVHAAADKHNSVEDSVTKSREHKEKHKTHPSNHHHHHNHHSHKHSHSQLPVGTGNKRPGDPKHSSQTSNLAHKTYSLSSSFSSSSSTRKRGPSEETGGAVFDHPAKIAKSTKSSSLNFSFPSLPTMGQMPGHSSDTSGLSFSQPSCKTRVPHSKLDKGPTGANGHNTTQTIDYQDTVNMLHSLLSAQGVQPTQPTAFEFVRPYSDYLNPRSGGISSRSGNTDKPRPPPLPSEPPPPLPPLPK

MNK2 = MNK2 (Homo sapiens, UniProt Q9HBH9); details: MNK2, 10 μM
EPH-B2 = EPH-B2 (Homo sapiens, UniProt P29323); details: EPH-B2, 10 μM
How it was run: as §1

TrkA = TrkA (Homo sapiens, UniProt P04629)
Chain of TrkA (P04629 33-796): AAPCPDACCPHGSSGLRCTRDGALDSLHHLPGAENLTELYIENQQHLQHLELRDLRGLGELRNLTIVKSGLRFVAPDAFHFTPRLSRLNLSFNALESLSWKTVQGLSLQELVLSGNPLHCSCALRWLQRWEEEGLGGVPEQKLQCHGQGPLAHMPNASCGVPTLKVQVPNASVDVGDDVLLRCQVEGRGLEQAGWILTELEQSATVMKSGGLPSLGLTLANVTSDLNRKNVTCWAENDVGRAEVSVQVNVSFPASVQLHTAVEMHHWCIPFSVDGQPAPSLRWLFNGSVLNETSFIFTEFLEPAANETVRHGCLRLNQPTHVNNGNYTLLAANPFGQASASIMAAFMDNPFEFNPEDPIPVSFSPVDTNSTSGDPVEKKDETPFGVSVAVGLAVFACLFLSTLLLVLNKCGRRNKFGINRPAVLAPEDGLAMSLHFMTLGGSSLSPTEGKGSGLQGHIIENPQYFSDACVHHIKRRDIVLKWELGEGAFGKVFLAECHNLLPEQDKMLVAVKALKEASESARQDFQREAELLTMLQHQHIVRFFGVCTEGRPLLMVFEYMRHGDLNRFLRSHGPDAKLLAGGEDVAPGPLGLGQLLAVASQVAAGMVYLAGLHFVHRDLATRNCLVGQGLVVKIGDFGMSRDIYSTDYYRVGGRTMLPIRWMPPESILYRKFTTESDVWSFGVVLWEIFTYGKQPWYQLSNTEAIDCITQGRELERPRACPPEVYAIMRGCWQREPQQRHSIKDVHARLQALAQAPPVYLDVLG
How it was run: as §1

S6K1 = S6K1 (Homo sapiens, UniProt P23443); details: S6K1, 10 μM
How it was run: as §1

MEKK1 = MEKK1 (Homo sapiens, UniProt Q13233); details: MEKK1, 10 μM
ERK1 = ERK1 (Homo sapiens, UniProt P27361); details: ERK1, 10 μM
How it was run: as §1

PRK2 = PRK2 (Homo sapiens, UniProt Q16513); details: PRK2, 10 μM
How it was run: as §1

p38a MAPK = p38a MAPK (Homo sapiens, UniProt Q16539)
Chain of p38a MAPK (Q16539 whole entry): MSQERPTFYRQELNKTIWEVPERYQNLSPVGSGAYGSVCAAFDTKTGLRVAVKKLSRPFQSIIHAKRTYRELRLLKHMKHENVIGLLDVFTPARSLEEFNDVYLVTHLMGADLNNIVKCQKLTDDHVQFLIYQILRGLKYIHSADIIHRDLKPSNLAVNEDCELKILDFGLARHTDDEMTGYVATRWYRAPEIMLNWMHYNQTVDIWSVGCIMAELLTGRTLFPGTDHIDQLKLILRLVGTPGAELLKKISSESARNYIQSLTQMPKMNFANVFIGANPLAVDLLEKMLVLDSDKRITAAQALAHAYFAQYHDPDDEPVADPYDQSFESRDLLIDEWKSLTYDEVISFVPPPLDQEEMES
How it was run: as §1

IKKe = IKKe (Homo sapiens, UniProt Q14164)
Chain of IKKe (Q14164 whole entry): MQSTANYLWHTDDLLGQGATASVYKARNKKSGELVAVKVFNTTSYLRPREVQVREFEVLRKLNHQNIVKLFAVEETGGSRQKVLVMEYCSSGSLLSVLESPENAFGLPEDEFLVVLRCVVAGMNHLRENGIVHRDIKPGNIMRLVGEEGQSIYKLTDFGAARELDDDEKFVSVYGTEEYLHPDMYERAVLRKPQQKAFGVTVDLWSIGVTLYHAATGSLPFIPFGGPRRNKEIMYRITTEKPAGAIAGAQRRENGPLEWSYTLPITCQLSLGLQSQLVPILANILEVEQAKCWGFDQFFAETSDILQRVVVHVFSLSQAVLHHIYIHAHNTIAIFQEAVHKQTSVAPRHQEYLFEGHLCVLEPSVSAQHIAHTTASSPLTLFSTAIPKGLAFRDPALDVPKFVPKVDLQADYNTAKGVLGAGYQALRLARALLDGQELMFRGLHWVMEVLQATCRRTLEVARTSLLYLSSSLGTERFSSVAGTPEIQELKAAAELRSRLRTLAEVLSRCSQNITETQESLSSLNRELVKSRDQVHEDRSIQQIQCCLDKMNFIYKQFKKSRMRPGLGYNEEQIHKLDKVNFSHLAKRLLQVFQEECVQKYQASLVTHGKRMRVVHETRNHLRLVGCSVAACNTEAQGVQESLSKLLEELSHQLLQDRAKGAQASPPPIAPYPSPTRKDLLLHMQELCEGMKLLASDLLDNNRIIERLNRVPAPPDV
How it was run: as §1

DAPK1 = DAPK1 (Homo sapiens, UniProt P53355); details: DAPK1, 10 μM
How it was run: as §1

EPH-A2 = EPH-A2 (Homo sapiens, UniProt P29317); details: EPH-A2, 10 μM
How it was run: as §1

p38d MAPK = p38d MAPK (Homo sapiens, UniProt O15264)
How it was run: as §1

PKD1 = PKD1 (Homo sapiens, UniProt Q15139); details: PKD1, 10 μM
Chain of PKD1 (Q15139 whole entry): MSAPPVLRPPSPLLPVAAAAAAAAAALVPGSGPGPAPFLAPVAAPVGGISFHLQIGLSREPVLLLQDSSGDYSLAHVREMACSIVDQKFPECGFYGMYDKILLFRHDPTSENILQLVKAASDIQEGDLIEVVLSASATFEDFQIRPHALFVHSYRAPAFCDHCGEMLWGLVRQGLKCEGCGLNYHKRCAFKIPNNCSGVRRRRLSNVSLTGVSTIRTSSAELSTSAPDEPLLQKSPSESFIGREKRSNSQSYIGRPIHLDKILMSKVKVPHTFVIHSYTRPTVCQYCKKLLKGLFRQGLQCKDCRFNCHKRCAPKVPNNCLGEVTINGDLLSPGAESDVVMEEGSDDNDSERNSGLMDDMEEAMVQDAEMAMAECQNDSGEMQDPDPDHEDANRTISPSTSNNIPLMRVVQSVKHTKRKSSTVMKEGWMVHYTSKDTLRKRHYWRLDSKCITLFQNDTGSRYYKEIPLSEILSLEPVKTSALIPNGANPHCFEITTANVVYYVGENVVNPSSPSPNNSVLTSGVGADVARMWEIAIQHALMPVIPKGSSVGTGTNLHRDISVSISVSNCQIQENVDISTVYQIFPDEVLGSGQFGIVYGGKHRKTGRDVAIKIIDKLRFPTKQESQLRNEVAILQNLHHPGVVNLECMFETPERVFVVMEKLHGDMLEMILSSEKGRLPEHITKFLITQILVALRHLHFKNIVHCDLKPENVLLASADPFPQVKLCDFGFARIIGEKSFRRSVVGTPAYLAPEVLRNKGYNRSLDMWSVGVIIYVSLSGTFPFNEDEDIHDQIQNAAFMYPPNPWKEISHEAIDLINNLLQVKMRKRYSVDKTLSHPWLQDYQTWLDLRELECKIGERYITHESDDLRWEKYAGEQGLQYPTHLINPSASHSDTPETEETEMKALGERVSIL
How it was run: as §1

TSSK1 = TSSK1 (Homo sapiens, UniProt Q9BXA7); details: TSSK1, 10 μM
How it was run: as §1

SmMLCK = SmMLCK (Homo sapiens, UniProt Q15746)
How it was run: as §1

Compound: CN(C)c1cc[n+](CCCCCCCCCCCC[n+]2ccc(N(C)C)cc2)cc1 [ICL-CCIC-0019]
- remaining activity at 10 µM (PAK2): 107%
- remaining activity at 10 µM (EIF2AK3): 97%
- remaining activity at 10 µM (BTK): 131%
- remaining activity at 10 µM (OSR1): 99%
- remaining activity at 10 µM (CK2): 86%
- inhibition at 10 µM (MAPKAP-K3): 33 ± 6%
- remaining activity at 10 µM (MAPKAP-K3): 67%
- remaining activity at 10 µM (ZAP70): 102%
- remaining activity at 10 µM (JAK2): 90%
- remaining activity at 10 µM (Src): 105%
- remaining activity at 10 µM (JNK3): 92%
- remaining activity at 10 µM (TAK1-TAB1): 97%
- remaining activity at 10 µM (CDK9-Cyclin T1): 95%
- remaining activity at 10 µM (MNK2): 96%
- remaining activity at 10 µM (EPH-B2): 90%
- remaining activity at 10 µM (TrkA): 84%
- remaining activity at 10 µM (S6K1): 88%
- remaining activity at 10 µM (MEKK1): 92%
- remaining activity at 10 µM (ERK1): 91%
- remaining activity at 10 µM (PRK2): 94%
- remaining activity at 10 µM (p38a MAPK): 108%
- remaining activity at 10 µM (IKKe): 123%
- remaining activity at 10 µM (DAPK1): 96%
- remaining activity at 10 µM (EPH-A2): 93%
- remaining activity at 10 µM (p38d MAPK): 100%
- remaining activity at 10 µM (PKD1): 105%
- remaining activity at 10 µM (TSSK1): 107%
- remaining activity at 10 µM (SmMLCK): 104%
